From ChEMBL document CHEMBL3593219, “Sesquiterpenes with TRAIL-resistance overcoming activity from Xanthium strumarium” (Bioorg Med Chem, 2015)
Activity calls are given as the source filed them. No cut-off for these calls is given here.

Legend:
AGS [1] = test: Inhibition of TRAIL-resistance in human AGS cells assessed as inhibition of cell viability at 8 uM incubated for 24 hrs in presence of 100 ng/ml TRAIL by FMCA method relative to TRAIL alone; type: functional
AGS [2] = test: Inhibition of TRAIL-resistance in human AGS cells assessed as inhibition of cell viability at 16 uM incubated for 24 hrs in presence of 100 ng/ml TRAIL by FMCA method relative to TRAIL alone; type: functional
AGS [3] = test: Inhibition of TRAIL-resistance in human AGS cells assessed as inhibition of cell viability at 24 uM incubated for 24 hrs in presence of 100 ng/ml TRAIL by FMCA method relative to TRAIL alone; type: functional
AGS [4] = test: Increase in DR4 protein expression in human AGS cells incubated for 24 hrs by Western blotting method; type: functional, cell-based
AGS [5] = test: Increase in DR5 protein expression in human AGS cells incubated for 24 hrs by Western blotting method; type: functional, cell-based
AGS [6] = test: Increase in cleaved caspase-8 protein expression in human AGS cells incubated for 24 hrs by Western blotting method; type: functional, cell-based
AGS [7] = test: Increase in cleaved caspase-9 protein expression in human AGS cells at 4 to 12 uM s by Western blotting method; type: functional, cell-based
AGS [8] = test: Increase in caspase-3 protein expression in human AGS cells incubated for 24 hrs by Western blotting method; type: functional, cell-based
AGS [9] = test: Decrease in Bcl2 protein expression in human AGS cells incubated for 24 hrs by Western blotting method; type: functional, cell-based
AGS [10] = test: Increase in Bax protein expression in human AGS cells at incubated for 24 hrs by Western blotting method; type: functional, cell-based
AGS [11] = test: Increase in p53 protein expression in human AGS cells incubated for 24 hrs by Western blotting method; type: functional, cell-based
AGS [12] = test: Increase in CHOP protein expression in human AGS cells incubated for 24 hrs by Western blotting method; type: functional, cell-based
AGS [13] = test: Increase in cleaved caspase-8 protein expression in human AGS cells at 16 uM incubated for 24 hrs in presence of 100 ng/ml TRAIL by Western blotting method; type: functional
AGS [14] = test: Increase in cleaved caspase-8 protein expression in human AGS cells at 16 uM incubated for 24 hrs by Western blotting method; type: functional
AGS [15] = test: Increase in cleaved caspase-8 protein expression in human AGS cells at 16 uM incubated for 24 hrs in presence of 100 ng/ml TRAIL by Western blotting method relative to TRAIL alone; type: functional
AGS [16] = test: Increase in cleaved caspase-9 protein expression in human AGS cells at 16 uM incubated for 24 hrs in presence of 100 ng/ml TRAIL by Western blotting method; type: functional
AGS [17] = test: Increase in cleaved caspase-9 protein expression in human AGS cells at 16 uM incubated for 24 hrs by Western blotting method; type: functional
AGS [18] = test: Increase in cleaved caspase-9 protein expression in human AGS cells at 16 uM incubated for 24 hrs in presence of 100 ng/ml TRAIL by Western blotting method relative to TRAIL alone; type: functional
AGS [19] = test: Increase in cleaved caspase-3 protein expression in human AGS cells at 16 uM incubated for 24 hrs in presence of 100 ng/ml TRAIL by Western blotting method; type: functional
AGS [20] = test: Increase in cleaved caspase-3 protein expression in human AGS cells at 16 uM incubated for 24 hrs by Western blotting method; type: functional
AGS [21] = test: Increase in cleaved caspase-3 protein expression in human AGS cells at 16 uM incubated for 24 hrs in presence of 100 ng/ml TRAIL by Western blotting method relative to TRAIL alone; type: functional
AGS [22] = test: Inhibition of TRAIL-resistance in human AGS cells assessed as inhibition of cell viability at 10 uM incubated for 24 hrs in presence of 100 ng/ml TRAIL by FMCA method relative to TRAIL alone; type: functional
AGS [23] = test: Inhibition of TRAIL-resistance in human AGS cells assessed as inhibition of cell viability at 20 uM incubated for 24 hrs in presence of 100 ng/ml TRAIL by FMCA method relative to TRAIL alone; type: functional
AGS [24] = test: Inhibition of TRAIL-resistance in human AGS cells assessed as inhibition of cell viability at 30 uM incubated for 24 hrs in presence of 100 ng/ml TRAIL by FMCA method relative to TRAIL alone; type: functional
AGS [25] = test: Increase in cleaved caspase-8 protein expression in human AGS cells at 8 uM incubated for 24 hrs in presence of 100 ng/ml TRAIL by Western blotting method relative to TRAIL alone; type: functional
AGS [26] = test: Increase in cleaved caspase-8 protein expression in human AGS cells at 8 uM incubated for 24 hrs in presence of 100 ng/ml TRAIL by Western blotting method; type: functional
AGS [27] = test: Increase in caspase-3 protein expression in human AGS cells at 8 uM incubated for 24 hrs in presence of 100 ng/ml TRAIL by Western blotting method; type: functional
AGS [28] = test: Inhibition of TRAIL-resistance in human AGS cells assessed as inhibition of cell viability at 4 uM incubated for 24 hrs in presence of 100 ng/ml TRAIL by FMCA method relative to TRAIL alone; type: functional
AGS [29] = test: Inhibition of TRAIL-resistance in human AGS cells assessed as inhibition of cell viability at 12 uM incubated for 24 hrs in presence of 100 ng/ml TRAIL by FMCA method relative to TRAIL alone; type: functional
HeLa = test: Inhibition of TRAIL-resistance in human HeLa cells assessed as inhibition of cell viability at 4 to 12 uM incubated for 24 hrs in presence of 100 ng/ml TRAIL by FMCA method relative to TRAIL alone; type: functional, cell-based
DLD-1 = test: Inhibition of TRAIL-resistance in human DLD1 cells assessed as inhibition of cell viability at 4 to 12 uM incubated for 24 hrs in presence of 100 ng/ml TRAIL by FMCA method relative to TRAIL alone; type: functional, cell-based
DU-145 = test: Inhibition of TRAIL-resistance in human DU145 cells assessed as inhibition of cell viability at 4 to 12 uM incubated for 24 hrs in presence of 100 ng/ml TRAIL by FMCA method relative to TRAIL alone; type: functional, cell-based
MCF7 = test: Inhibition of TRAIL-resistance in human MCF7 cells assessed as inhibition of cell viability at 4 to 12 uM incubated for 24 hrs in presence of 100 ng/ml TRAIL by FMCA method relative to TRAIL alone; type: functional, cell-based
HEK293 = test: Inhibition of TRAIL-resistance in HEK293 cells assessed as inhibition of cell viability at 4 to 8 uM incubated for 24 hrs in presence of 100 ng/ml TRAIL by FMCA method relative to TRAIL alone; type: cell-based; details: human, hek293, 24 h
AGS [30] = test: Increase in cleaved caspase-8 protein expression in human AGS cells at 8 uM incubated for 24 hrs by Western blotting method; type: functional
AGS [31] = test: Increase in cleaved caspase-9 protein expression in human AGS cells at 8 uM incubated for 24 hrs in presence of 100 ng/ml TRAIL by Western blotting method; type: functional
AGS [32] = test: Increase in cleaved caspase-9 protein expression in human AGS cells at 8 uM incubated for 24 hrs by Western blotting method; type: functional
AGS [33] = test: Increase in cleaved caspase-9 protein expression in human AGS cells at 8 uM incubated for 24 hrs in presence of 100 ng/ml TRAIL by Western blotting method relative to TRAIL alone; type: functional
AGS [34] = test: Increase in caspase-3 protein expression in human AGS cells at 8 uM incubated for 24 hrs by Western blotting method; type: functional
AGS [35] = test: Increase in caspase-3 protein expression in human AGS cells at 8 uM incubated for 24 hrs in presence of 100 ng/ml TRAIL by Western blotting method relative to TRAIL alone; type: functional
AGS [36] = test: Increase in DR4 protein expression in human AGS cells at 8 uM incubated for 3 to 12 hrs by Western blotting method; type: functional, cell-based; details: TDE = time-dependent effect
AGS [37] = test: Increase in DR5 protein expression in human AGS cells at 8 uM incubated for 3 to 12 hrs by Western blotting method; type: functional, cell-based; details: TDE = time-dependent effect

SMILES	inhibition (INH) (AGS [1])	inhibition (INH) (AGS [2])	inhibition (INH) (AGS [3])	Activity (AGS [4])	Activity (AGS [5])	Activity (AGS [6])	Activity (AGS [7])	Activity (AGS [8])	Activity (AGS [9])	Activity (AGS [10])	Activity (AGS [11])	Activity (AGS [12])	inhibition (INH) (AGS [22])	inhibition (INH) (AGS [23])	inhibition (INH) (AGS [24])	also measured
COc1ccc(C(=O)O[C@@H]2C=C(C)CC[C@@]3(O)[C@@H](C(C)C)CC[C@]23C)cc1	15%	61%	56%	Dose-dependent effect	Dose-dependent effect	Dose-dependent effect	Dose-dependent effect	Dose-dependent effect	Dose-dependent effect	Dose-dependent effect	Dose-dependent effect	Dose-dependent effect	–	–	–	Activity (AGS [13]): 100%; Activity (AGS [14]): 10%; Activity (AGS [15]): 50%; Activity (AGS [16]): 100%; Activity (AGS [17]): 15%; Activity (AGS [18]): 20%; Activity (AGS [19]): 100%; Activity (AGS [20]): 5%; Activity (AGS [21]): 70%
CC(=O)CCC1=CC[C@H]2[C@H](C[C@@H]1C)OC(=O)[C@H]2C	–	–	–	–	–	–	–	–	–	–	–	–	19%	61%	36%	–
C=C1C(=O)O[C@H]2C[C@H](C)C(CCC(C)O)=CC[C@H]12 (stereo partly drawn)	23%	48%	35%	–	–	–	–	–	–	–	–	–	–	–	–	–
C=C1C(=O)O[C@H]2C[C@H](C)C(CCC(C)=O)=CC[C@H]12	44%	–	–	Dose-dependent effect	Dose-dependent effect	Dose-dependent effect	Dose-dependent effect	Dose-dependent effect	Dose-dependent effect	Dose-dependent effect	Dose-dependent effect	Dose-dependent effect	–	–	–	Activity (AGS [25]): 20%; Activity (AGS [26]): 100%; Activity (AGS [27]): 100%; inhibition (INH) (AGS [28]): 32%; inhibition (INH) (AGS [29]): 24%; inhibition (HeLa): Active; inhibition (DLD-1): Active; inhibition (DU-145): Active; inhibition (MCF7): Active; Activity (HEK293): Non-toxic; Activity (AGS [30]): 10%; Activity (AGS [31]): 100%; Activity (AGS [32]): 20%; Activity (AGS [33]): 20%; Activity (AGS [34]): 25%; Activity (AGS [35]): 65%; Activity (AGS [36]): tde; Activity (AGS [37]): tde
CC(O)CCC1=CC[C@H]2[C@H](C[C@@H]1C)OC(=O)[C@H]2C (stereo partly drawn)	–	–	–	–	–	–	–	–	–	–	–	–	30%	51%	34%	–
